Data: article doi:10.1101/2022.01.13.476167v2 (biorxiv, 2022)

Tested on: aPGA (Achromobacter spp. penicillin G acylase)
Details: 0.05 M phosphate buffer, pH 8.0, 35 °C

| Compound | Km |
| --- | --- |
| CCCCCCCC(=O)N[C@H]1CCOC1=O [C08-HSL] | 870 ± 10 µM |
| CCCCCC(=O)N[C@H]1CCOC1=O [C06-HSL] | 620 ± 100 µM |
